Where two headings read alike, the source gives them in different places.
Legend:
AGS cells = assay: Apoptotic ratio by propidium iodide flow cytometry (AC50); format: cell-based, human; settings: read-out: Apoptosis-inducing AC50
Procedure: (§1) The human cancer cells (2×10^5) were cultured in 60-mm Petri dishes and incubated for 24 h. After treated with test compounds for 24 h, the cells were then harvested, washed with PBS resuspended in 200 μL of PBS, and fixed in 800 μL of iced 100% ethanol at −20° C. After being left to stand overnight, the cell pellets were collected by centrifugation, resuspended in 1 mL of hypotonic buffer (0.5% Triton X-100 in PBS and 0.5 μg/mL RNase) and incubated at 37° C. for 30 min. Next, 1 mL of propidium iodide solution (50 μg/mL) was added, and the mixture was allowed to stand on ice for 30 min. Fluorescence emitted from the propidium iodide-DNA complex was quantitated after excitation of the fluorescent dye by FACScan cytometry (Becton Dickinson, San Jose, Calif.).
(§2) 1 N PMF and 6 N PMF compositions containing hydroxylated PMFs, prepared as described in Section 8.3 above, 70% PMF OPE and 5,6,7,8,3′,4′-hexamethoxyflavone (nobiletin) were tested for antiproliferative activity and apoptosis-inducing activity in HL-60, AGS and COLO205 cells as described in Section 8.4 above. Antiproliferative and apoptosis-inducing activities were derived as IC50 values and AC50, values, respectively, where AC50 is the concentration required for 50% apoptosis.
(§3) The PMF compounds were assayed in vitro for cell growth inhibition and for their ability to induce apoptosis in various human cancer cells, including HL-60, AGS, COLO 205, and HT-29 cells, using methods described in Section 8.4 above. Antiproliferative (IC50) and apoptosis-inducing activity (AC50) of PMFs in the HL-60, AGS, COLO 205, and HT-29 cells are reported in Table 9, where *P<0.05, **P<0.01 and ***P<0.001 indicate statistically significant differences from the control group.

COLO205 cells = assay: as above; format: cell-based, human
Procedure: as §1, §2, §3

HL-60 cells [1] = assay: as above; format: cell-based, human
Procedure: as §1, §2, §3

HT-29 cells [2] = assay: as above; format: cell-based, human; settings: read-out: Apoptosis-inducing AC50
Procedure: as §1, §3

HL-60 cells [3] = assay: Cell cycle distribution by flow cytometry; format: cell-based, human; settings: 24 h; for Cell Cycle Distribution G0/G1 / Cell Cycle Distribution G2/M / Cell Cycle Distribution S: Table 10
Procedure: as §1
The effects of the hydrolyzed PMF-enriched compositions, nobiletin and 70% PMF OPE on cell cycle distribution were studied, following the procedures described in Section 8.4. Results for cell cycle distribution in HL-60 cells, COLO205 cells and AGS cells are provided in Table 5, Table 6 and Table 7, respectively. […] In HL-60 cells, G2/M arrest predominated in cells treated with 6N PMF concentrations ≧5 μM and with 1N PMF concentrations ≧25 μM.
(§4) Compounds A-K were evaluated in terms of their effects in arresting cell cycle progression by observing cell cycle phase distribution in cells treated with the compounds. Cells were treated with 5, 10, 25, 50, and 100 μM of one of compound A-K or DMSO (control) for 24 h and subjected to flow cytometric analysis after staining their DNA, as described above.

HT-29 cells [4] = assay: Cell cycle distribution by flow cytometry; format: cell-based, human; settings: for Cell Cycle Distribution G0/G1 / Cell Cycle Distribution G2/M / Cell Cycle Distribution S: 24 h; for Cell cycle arrest, in words: 5-100 μM, 24 h exposure
Procedure: as §1, §4
Similar cell cycle phase distribution studies were performed in AGS, COLO205, and HT-29 cells in response to individual PMFs, with results reported in Tables 11, 12 and 13, respectively.

[5] = tested on: LPS-induced nitrite production in RAW 264.7 macrophages; assay: Nitrite assay (Griess reaction); format: cell-based, mouse; settings: 100 ng/ml LPS, PMF 30 μM, 24 h, FIG. 3
Procedure: Compounds or compositions were tested for anti-inflammatory effects by monitoring nitrite production in LPS-activated RAW264.7 cells. After treating the cells with LPS or LPS and test substance, supernatants were harvested and the amount of nitrite, an indicator of NO synthesis, was measured by use of the Griess reaction. Briefly, supernatants (100 μl) were mixed with the same volume of Griess reagent (1% sulphanilamide in 5% phosphoric acid and 0.1% naphthylethylenediamine dihydrochloride in water) in duplicate on 96-well plates. After incubation at room temperature for 10 min, absorbance at 570 nm was measured with a ELISA reader (Thermo Labsystems Multiskan Ascent, Finland).
The anti-inflammatory effects of compounds A-K were tested by measuring nitrite production in LPS-activated RAW 264.7 macrophages, as described in Section 8.4 above. Macrophages were treated with 100 ng/ml LPS alone or LPS and PMF (10 or 30 μM) for 24 h. At the end of incubation time, 100 μl of the culture medium was collected for the nitrite assay.

SMILES	Cell Cycle Distribution G0/G1 (HL-60 cells [3]; 5 μM)	Cell Cycle Distribution G2/M (HL-60 cells [3]; 5 μM)	Cell Cycle Distribution S (HL-60 cells [3]; 5 μM)	Cell Cycle Distribution G0/G1 (HL-60 cells [3]; 10 μM)	Cell Cycle Distribution G2/M (HL-60 cells [3]; 10 μM)	Cell Cycle Distribution S (HL-60 cells [3]; 10 μM)	Cell Cycle Distribution G0/G1 (HL-60 cells [3]; 25 μM)	Cell Cycle Distribution G2/M (HL-60 cells [3]; 25 μM)	Cell Cycle Distribution S (HL-60 cells [3]; 25 μM)	Cell Cycle Distribution G0/G1 (HL-60 cells [3]; 50 μM)	Cell Cycle Distribution G2/M (HL-60 cells [3]; 50 μM)	Cell Cycle Distribution S (HL-60 cells [3]; 50 μM)	Cell Cycle Distribution G0/G1 (HL-60 cells [3]; 100 μM)	Cell Cycle Distribution G2/M (HL-60 cells [3]; 100 μM)	Cell Cycle Distribution S (HL-60 cells [3]; 100 μM)	Cell Cycle Distribution G0/G1 (HT-29 cells [4]; 5 μM)	Cell Cycle Distribution G2/M (HT-29 cells [4]; 5 μM)	Cell Cycle Distribution S (HT-29 cells [4]; 5 μM)	Cell Cycle Distribution G0/G1 (HT-29 cells [4]; 10 μM)	Cell Cycle Distribution G2/M (HT-29 cells [4]; 10 μM)	further results
COc1ccc(-c2cc(=O)c3c(OC)c(OC)c(OC)c(OC)c3o2)cc1O [I, 3′-hydroxy-5,6,7,8,4′-pentamethoxyflavone]	44.51 ± 2.37	9.23 ± 0.16	46.27 ± 2.21	43.22 ± 1.85	11.92 ± 0.64	44.86 ± 2.49	50.55 ± 0.97	10.75 ± 0.41	38.71 ± 1.38	50.23 ± 1.94	6.36 ± 1.69	43.41 ± 3.62	65.54 ± 4.07	13.24 ± 11.61	21.31 ± 15.55	60.78 ± 1.52	7.95 ± 0.71	31.28 ± 0.81	61.09 ± 1.06	7.89 ± 0.23	AC50 (AGS cells; Homo sapiens, AGS): > 100 µM; AC50 (COLO205 cells; Homo sapiens, COLO 205, read-out: Apoptosis-inducing AC50): > 100 µM; AC50 (HL-60 cells [1]; Homo sapiens, HL-60, read-out: Apoptosis-inducing AC50): 94.6 ± 1.5 µM; AC50 (HT-29 cells [2]; Homo sapiens): > 100 µM; Cell Cycle Distribution S (HT-29 cells [4]; 10 μM): 31.02 ± 1.30; Cell Cycle Distribution G0/G1 (HT-29 cells [4]; 25 μM): 60.90 ± 0.87; Cell Cycle Distribution G2/M (HT-29 cells [4]; 25 μM): 7.48 ± 0.64; Cell Cycle Distribution S (HT-29 cells [4]; 25 μM): 31.63 ± 0.23; Cell Cycle Distribution G0/G1 (HT-29 cells [4]; 50 μM): 66.36 ± 0.88; Cell Cycle Distribution G2/M (HT-29 cells [4]; 50 μM): 9.83 ± 0.61; Cell Cycle Distribution S (HT-29 cells [4]; 50 μM): 23.81 ± 0.28; Cell Cycle Distribution G0/G1 (HT-29 cells [4]; 100 μM): 74.18 ± 2.33; Cell Cycle Distribution G2/M (HT-29 cells [4]; 100 μM): 0.37 ± 0.40; Cell Cycle Distribution S (HT-29 cells [4]; 100 μM): 25.45 ± 2.72; Cell cycle arrest, in words (HT-29 cells [4]): significant accumulation of cells in G1 phase; Rank of inhibitory potency on LPS-induced nitrite production [5]: H>G>K>C>I>B
COc1ccc(-c2oc3c(OC)c(OC)c(OC)c(OC)c3c(=O)c2O)cc1OC [B, 3-hydroxy-5,6,7,8,3′,4-hexamethoxyflavone]	42.63 ± 0.85	9.99 ± 1.70	47.38 ± 0.42	40.76 ± 0.28	0.23 ± 0.42	59.01 ± 0.78	47.74 ± 0.71	0.00 ± 0.64	52.26 ± 0.64	41.48 ± 0.85	0.00 ± 0.57	58.52 ± 0.42	49.63 ± 0.28	0.51 ± 0.64	43.86 ± 0.21	63.71 ± 1.80	6.50 ± 0.37	29.8 ± 1.42	69.27 ± 3.06	5.60 ± 0.85	AC50 (AGS cells; AGS cells): > 100 µM; AC50 (COLO205 cells; COLO205 cells, read-out: Apoptosis-inducing AC50): > 100 µM; AC50 (HL-60 cells [1]; HL-60 cells, read-out: Apoptosis-inducing AC50): 56.5 ± 2.39 µM; AC50 (HT-29 cells [2]): > 100 µM; Cell Cycle Distribution S (HT-29 cells [4]; 10 μM): 25.14 ± 2.21; Cell Cycle Distribution G0/G1 (HT-29 cells [4]; 25 μM): 70.85 ± 1.84; Cell Cycle Distribution G2/M (HT-29 cells [4]; 25 μM): 4.37 ± 0.62; Cell Cycle Distribution S (HT-29 cells [4]; 25 μM): 24.8 ± 1.23; Cell Cycle Distribution G0/G1 (HT-29 cells [4]; 50 μM): 70.11 ± 1.44; Cell Cycle Distribution G2/M (HT-29 cells [4]; 50 μM): 10.73 ± 0.47; Cell Cycle Distribution S (HT-29 cells [4]; 50 μM): 19.18 ± 0.96; Cell Cycle Distribution G0/G1 (HT-29 cells [4]; 100 μM): 66.75 ± 1.06; Cell Cycle Distribution G2/M (HT-29 cells [4]; 100 μM): 8.82 ± 0.26; Cell Cycle Distribution S (HT-29 cells [4]; 100 μM): 24.45 ± 0.80; Rank of inhibitory potency on LPS-induced nitrite production [5]: H>G>K>C>I>B
COc1ccc(-c2oc3c(OC)c(OC)c(OC)c(O)c3c(=O)c2OC)cc1OC [Compound C, 5-hydroxy-3,6,7,8,3′,4′-hexamethoxyflavone]	70.99 ± 0.49	0.95 ± 0.35	28.07 ± 0.99	78.47 ± 0.64	19.89 ± 1.06	1.64 ± 0.42	40.12 ± 0.64	20.37 ± 0.57	39.51 ± 0.57	51.42 ± 1.13	11.64 ± 1.06	36.94 ± 0.85	50.23 ± 1.91	18.74 ± 1.56	31.03 ± 1.06	65.24 ± 0.32	7.62 ± 0.11	27.15 ± 0.21	69.14 ± 0.14	6.58 ± 0.18	AC50 (AGS cells; Homo sapiens, AGS cells): 18.9 ± 0.41 µM; AC50 (COLO205 cells; Homo sapiens, COLO 205, COLO205 cells, read-out: Apoptosis-inducing AC50): > 100 µM; AC50 (HL-60 cells [1]; Homo sapiens, HL-60 cells, read-out: Apoptosis-inducing AC50): 63.65 ± 0.61 µM; AC50 (HT-29 cells [2]; Homo sapiens): > 100 µM; Cell cycle arrest, in words (HL-60 cells [3]; 25 μM): decrease in G1 arrest was accompanied by an increase in G2/M phase cell population; Cell cycle arrest, in words (HL-60 cells [3]; 25-100 μM): significant G1 arrest; Cell Cycle Distribution S (HT-29 cells [4]; 10 μM): 24.28 ± 0.32; Cell Cycle Distribution G0/G1 (HT-29 cells [4]; 25 μM): 80.09 ± 0.19; Cell Cycle Distribution G2/M (HT-29 cells [4]; 25 μM): 4.39 ± 0.37; Cell Cycle Distribution S (HT-29 cells [4]; 25 μM): 15.54 ± 0.19; Cell Cycle Distribution G0/G1 (HT-29 cells [4]; 50 μM): 69.85 ± 0.66; Cell Cycle Distribution G2/M (HT-29 cells [4]; 50 μM): 5.91 ± 0.49; Cell Cycle Distribution S (HT-29 cells [4]; 50 μM): 24.25 ± 1.15; Cell Cycle Distribution G0/G1 (HT-29 cells [4]; 100 μM): 77.48 ± 0.74; Cell Cycle Distribution G2/M (HT-29 cells [4]; 100 μM): 3.94 ± 1.32; Cell Cycle Distribution S (HT-29 cells [4]; 100 μM): 18.59 ± 0.58; Cell cycle arrest, in words (HT-29 cells [4]): significant accumulation of cells in G1 phase; Rank of inhibitory potency on LPS-induced nitrite production [5]: H>G>K>C>I>B

Source: patent publication US20140039044A1, “Hydroxylated Polymethoxyflavone Compositions” (WLLGEN, INC., priority 2006, published 2014)
